According to PubChem BioAssay (NCI):
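Step 1: Grow cells in 96-well plates. Step 2: Expose to compound for 48 hours at 5 concentrations. Step 3: Interpolate endpoints linearly; if unreached, use highest concentration. At the GI50, growth is halved. TGI denotes the concentration required for complete inhibition of growth.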

Assays:
Assay in all cases: growth of human tumour cells (NCI), 48 h
[1] = tested on: 786-0 renal
[2] = tested on: A498 renal
[3] = tested on: A549 NSCLC
[4] = tested on: ACHN renal
[5] = tested on: CAKI-1 renal
[6] = tested on: CCRF-CEM leukemia
[7] = tested on: DLD-1 colon
[8] = tested on: DMS 114 small cell lung
[9] = tested on: DMS 273 small cell lung
[10] = tested on: EKVX NSCLC
[11] = tested on: HCC-2998 colon
[12] = tested on: HCT-116 colon
[13] = tested on: HCT-15 colon
[14] = tested on: HL-60(TB) leukemia
[15] = tested on: HOP-18 NSCLC
[16] = tested on: HOP-62 NSCLC
[17] = tested on: HOP-92 NSCLC
[18] = tested on: HT29 colon
[19] = tested on: IGROV1 ovarian
[20] = tested on: K-562 leukemia
[21] = tested on: KM12 colon
[22] = tested on: KM20L2 colon
[23] = tested on: LOX IMVI melanoma
[24] = tested on: LXFL 529 NSCLC
[25] = tested on: M14 melanoma
[26] = tested on: M19-MEL melanoma
[27] = tested on: MALME-3M melanoma
[28] = tested on: MOLT-4 leukemia
[29] = tested on: NCI-H226 lung
[30] = tested on: NCI-H23 lung
[31] = tested on: NCI-H460 lung
[32] = tested on: NCI-H522 lung
[33] = tested on: OVCAR-4 ovarian
[34] = tested on: OVCAR-5 ovarian
[35] = tested on: OVCAR-8 ovarian
[36] = tested on: RPMI-8226 leukemia
[37] = tested on: RXF 393 renal
[38] = tested on: RXF-631 renal
[39] = tested on: SF-268 CNS
[40] = tested on: SF-295 CNS
[41] = tested on: SF-539 CNS
[42] = tested on: SK-MEL-2 melanoma
[43] = tested on: SK-MEL-28 melanoma
[44] = tested on: SK-MEL-5 melanoma
[45] = tested on: SK-OV-3 ovarian
[46] = tested on: SN12C renal
[47] = tested on: SNB-19 CNS
[48] = tested on: SNB-75 CNS
[49] = tested on: SNB-78 CNS
[50] = tested on: SR leukemia
[51] = tested on: SW-620 colon
[52] = tested on: TK-10 renal
[53] = tested on: U251 CNS
[54] = tested on: UACC-257 melanoma
[55] = tested on: UACC-62 melanoma
[56] = tested on: UO-31 renal
[57] = tested on: XF 498 CNS
[58] = tested on: COLO 205 colon
[59] = tested on: OVCAR-3 ovarian

CN(Cc1ccccc1)c1nc(=[N+](C)C)ss1
TGI [1]: > 100 µM
TGI [2]: > 100 µM
TGI [3]: > 100 µM
TGI [4]: > 100 µM
TGI [5]: > 100 µM
TGI [6]: > 100 µM
TGI [7]: > 100 µM
TGI [8]: > 100 µM
TGI [9]: > 100 µM
TGI [10]: > 100 µM
TGI [11]: > 100 µM
TGI [12]: > 100 µM
TGI [13]: > 100 µM
TGI [14]: > 100 µM
TGI [15]: > 100 µM
TGI [16]: > 100 µM
TGI [17]: > 100 µM
TGI [18]: > 100 µM
TGI [19]: > 100 µM
TGI [20]: > 100 µM
TGI [21]: > 100 µM
TGI [22]: > 100 µM
TGI [23]: > 100 µM
TGI [24]: > 100 µM
TGI [25]: > 100 µM
TGI [26]: > 100 µM
TGI [27]: > 100 µM
TGI [28]: > 100 µM
TGI [29]: > 100 µM
TGI [30]: > 100 µM
TGI [31]: > 100 µM
TGI [32]: > 100 µM
TGI [33]: > 100 µM
TGI [34]: > 100 µM
TGI [35]: > 100 µM
TGI [36]: > 100 µM
TGI [37]: > 100 µM
TGI [38]: > 100 µM
TGI [39]: > 100 µM
TGI [40]: > 100 µM
TGI [41]: > 100 µM
TGI [42]: > 100 µM
TGI [43]: > 100 µM
TGI [44]: > 100 µM
TGI [45]: > 100 µM
TGI [46]: > 100 µM
TGI [47]: > 100 µM
TGI [48]: > 100 µM
TGI [49]: > 100 µM
TGI [50]: > 100 µM
TGI [51]: > 100 µM
TGI [52]: > 100 µM
TGI [53]: > 100 µM
TGI [54]: > 100 µM
TGI [55]: > 100 µM
TGI [56]: > 100 µM
TGI [57]: > 100 µM

C[C@@]1(CBr)C[C@@](C)(/C=C/Cl)[C@@H](Cl)C[C@H]1Cl
TGI [1]: 27 µM
TGI [2]: 30.8 µM
TGI [3]: 26.1 µM
TGI [4]: 25.7 µM
TGI [5]: 31.7 µM
TGI [6]: 19.8 µM
TGI [58]: 28.1 µM
TGI [7]: 27.3 µM
TGI [8]: 25.3 µM
TGI [9]: 22.8 µM
TGI [10]: 33 µM
TGI [11]: 29.8 µM
TGI [12]: 21.2 µM
TGI [14]: 8.6 µM
TGI [15]: 26.4 µM
TGI [16]: 27.5 µM
TGI [17]: 27.7 µM
TGI [18]: 22.4 µM
TGI [19]: 29 µM
TGI [20]: 25.3 µM
TGI [21]: 22.5 µM
TGI [22]: 24.6 µM
TGI [23]: 23.7 µM
TGI [24]: 21.7 µM
TGI [25]: 29 µM
TGI [26]: 25.9 µM
TGI [27]: 30.4 µM
TGI [28]: 19.4 µM
TGI [29]: 26.1 µM
TGI [30]: 27.9 µM
TGI [32]: 14.5 µM
TGI [59]: 22.8 µM
TGI [33]: 24.6 µM
TGI [34]: 26.3 µM
TGI [35]: 29.9 µM
TGI [37]: 27.9 µM
TGI [38]: 24.2 µM
TGI [39]: 30.1 µM
TGI [40]: 26.8 µM
TGI [41]: 27.9 µM
TGI [42]: 8.46 µM
TGI [43]: 31.3 µM
TGI [44]: 26.1 µM
TGI [45]: 29.9 µM
TGI [46]: 24.4 µM
TGI [47]: 27.1 µM
TGI [48]: 30.5 µM
TGI [49]: 14 µM
TGI [50]: 16.9 µM
TGI [51]: 27.8 µM
TGI [52]: 28.7 µM
TGI [53]: 27.9 µM
TGI [54]: 24.2 µM
TGI [55]: 29.1 µM
TGI [56]: 29.1 µM
TGI [57]: 24.5 µM

O=C(O)C1=C(Cl)c2ccccc2S1(=O)=O
TGI [1]: > 100 µM
TGI [3]: > 100 µM
TGI [5]: > 100 µM
TGI [6]: > 100 µM
TGI [58]: > 100 µM
TGI [7]: > 100 µM
TGI [8]: > 100 µM
TGI [10]: > 100 µM
TGI [11]: > 100 µM
TGI [13]: > 100 µM
TGI [14]: > 100 µM
TGI [16]: > 100 µM
TGI [17]: > 100 µM
TGI [19]: > 100 µM
TGI [20]: > 100 µM
TGI [21]: > 100 µM
TGI [22]: > 100 µM
TGI [23]: > 100 µM
TGI [24]: > 100 µM
TGI [25]: > 100 µM
TGI [26]: > 100 µM
TGI [27]: > 100 µM
TGI [28]: > 100 µM
TGI [30]: > 100 µM
TGI [31]: > 100 µM
TGI [32]: 40.7 µM
TGI [33]: > 100 µM
TGI [34]: > 100 µM
TGI [35]: > 100 µM
TGI [36]: > 100 µM
TGI [37]: > 100 µM
TGI [38]: > 100 µM
TGI [39]: > 100 µM
TGI [40]: > 100 µM
TGI [42]: > 100 µM
TGI [43]: > 100 µM
TGI [44]: > 100 µM
TGI [45]: > 100 µM
TGI [46]: > 100 µM
TGI [47]: > 100 µM
TGI [48]: > 100 µM
TGI [49]: > 100 µM
TGI [51]: > 100 µM
TGI [52]: > 100 µM
TGI [54]: > 100 µM
TGI [55]: > 100 µM
TGI [56]: > 100 µM
TGI [57]: > 100 µM

O=c1cc(-c2ccc[nH]2)[nH]c2cc3c(cc12)OCO3
TGI [1]: > 100 µM
TGI [2]: 74.3 µM
TGI [3]: > 100 µM
TGI [4]: > 100 µM
TGI [6]: > 100 µM
TGI [58]: 60.3 µM
TGI [7]: > 100 µM
GI50 [8]: 32.5 µM
TGI [8]: > 100 µM
TGI [9]: > 100 µM
TGI [10]: > 100 µM
TGI [11]: 86.5 µM
GI50 [12]: 29.4 µM
TGI [12]: > 100 µM
TGI [13]: > 100 µM
TGI [14]: 83.6 µM
TGI [16]: 93.5 µM
TGI [18]: > 100 µM
TGI [19]: > 100 µM
TGI [20]: > 100 µM
GI50 [22]: 20.1 µM
TGI [22]: 42.6 µM
TGI [23]: > 100 µM
TGI [24]: > 100 µM
TGI [25]: > 100 µM
TGI [26]: > 100 µM
TGI [27]: > 100 µM
TGI [28]: > 100 µM
GI50 [29]: 35.3 µM
TGI [29]: > 100 µM
TGI [31]: > 100 µM
GI50 [59]: 30.8 µM
TGI [59]: > 100 µM
TGI [33]: 56 µM
TGI [35]: > 100 µM
TGI [36]: > 100 µM
GI50 [37]: 15.9 µM
TGI [37]: 47 µM
TGI [38]: > 100 µM
GI50 [39]: > 100 µM
TGI [39]: > 100 µM
GI50 [40]: 33.8 µM
TGI [40]: > 100 µM
TGI [41]: 84.6 µM
TGI [42]: > 100 µM
TGI [43]: > 100 µM
GI50 [44]: 7.74 µM
TGI [44]: > 100 µM
TGI [46]: > 100 µM
TGI [47]: > 100 µM
TGI [48]: 68.9 µM
TGI [50]: > 100 µM
TGI [51]: > 100 µM
TGI [52]: > 100 µM
TGI [53]: > 100 µM
TGI [54]: > 100 µM
TGI [55]: > 100 µM
TGI [56]: > 100 µM
TGI [57]: 89.2 µM
